This assay deals with T1, SMARCA2 (Homo sapiens, UniProt P51531).
T1 construct: endogenous in cells; host or cells: HT1080 (CRISPR HiBiT knock-in clone, generated in house)
In words: SMARCA2 HiBiT degradation assay (cellular). Type of assay: cell-based. Particulars: table head names A549; for DC50: 6 h incubation, HiBiT-tagged SMARCA2, luminescence read-out, read-out: HiBit A549 SMARCA2 IP (nM) 6 h; for Emax: A549, 6 h incubation, Emax = amount of residual protein remaining in the cell following compound treatment.

Results on 13 molecules are retold here after patent publication US20230024096A1, “BIFUNCTIONAL COMPOUNDS FOR THE TREATMENT OF CANCER” (Hoffmann-La Roche Inc., priority 2019, published 2023).

T1 sequence (P51531 whole entry): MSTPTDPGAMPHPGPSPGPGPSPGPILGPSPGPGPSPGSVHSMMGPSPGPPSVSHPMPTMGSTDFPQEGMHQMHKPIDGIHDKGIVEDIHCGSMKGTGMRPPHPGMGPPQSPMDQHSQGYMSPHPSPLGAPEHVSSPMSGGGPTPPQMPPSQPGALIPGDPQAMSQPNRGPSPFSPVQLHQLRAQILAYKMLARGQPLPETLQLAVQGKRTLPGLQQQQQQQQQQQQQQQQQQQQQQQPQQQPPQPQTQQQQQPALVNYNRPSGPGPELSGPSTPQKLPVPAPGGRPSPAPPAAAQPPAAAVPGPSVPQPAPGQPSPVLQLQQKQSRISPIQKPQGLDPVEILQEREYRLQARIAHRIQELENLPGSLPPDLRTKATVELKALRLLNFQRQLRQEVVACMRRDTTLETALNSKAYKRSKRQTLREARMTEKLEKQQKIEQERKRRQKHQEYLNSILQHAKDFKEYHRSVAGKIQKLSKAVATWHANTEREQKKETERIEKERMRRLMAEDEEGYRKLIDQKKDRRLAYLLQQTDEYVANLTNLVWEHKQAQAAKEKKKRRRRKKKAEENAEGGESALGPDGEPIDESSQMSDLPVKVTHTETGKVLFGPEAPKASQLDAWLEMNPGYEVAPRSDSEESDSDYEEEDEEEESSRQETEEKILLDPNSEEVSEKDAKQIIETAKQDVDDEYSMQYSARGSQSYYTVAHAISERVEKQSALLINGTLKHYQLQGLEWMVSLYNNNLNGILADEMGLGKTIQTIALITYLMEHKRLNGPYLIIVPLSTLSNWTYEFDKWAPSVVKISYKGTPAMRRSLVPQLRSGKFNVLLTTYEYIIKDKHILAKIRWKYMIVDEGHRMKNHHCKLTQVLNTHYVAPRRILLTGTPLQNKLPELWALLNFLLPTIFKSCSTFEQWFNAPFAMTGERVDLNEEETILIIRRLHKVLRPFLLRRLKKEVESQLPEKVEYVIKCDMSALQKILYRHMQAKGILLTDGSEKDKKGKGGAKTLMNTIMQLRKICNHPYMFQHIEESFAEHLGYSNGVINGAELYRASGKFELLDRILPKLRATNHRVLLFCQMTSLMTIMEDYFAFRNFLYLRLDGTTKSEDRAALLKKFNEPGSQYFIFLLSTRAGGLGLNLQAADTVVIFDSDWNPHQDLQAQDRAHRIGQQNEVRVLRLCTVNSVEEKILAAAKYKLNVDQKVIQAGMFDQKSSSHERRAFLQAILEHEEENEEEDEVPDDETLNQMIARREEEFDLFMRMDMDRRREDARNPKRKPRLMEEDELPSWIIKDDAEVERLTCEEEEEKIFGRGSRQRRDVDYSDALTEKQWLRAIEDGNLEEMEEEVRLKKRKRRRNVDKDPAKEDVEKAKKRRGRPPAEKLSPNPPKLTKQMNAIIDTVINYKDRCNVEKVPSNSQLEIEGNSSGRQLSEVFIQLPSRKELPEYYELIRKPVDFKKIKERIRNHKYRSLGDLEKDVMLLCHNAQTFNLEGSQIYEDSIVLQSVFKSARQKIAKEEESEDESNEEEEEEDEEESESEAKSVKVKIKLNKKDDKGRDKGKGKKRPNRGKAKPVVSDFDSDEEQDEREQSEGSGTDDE

Turning to `Nc1nnc(-c2ccccc2O)cc1N1CC2CCC(C1)N2c1cccc(OCCN2CCN(C(=O)CN3CCC(c4ccc(OC5CCC(=O)NC5=O)cn4)CC3)CC2)c1` (centres unmarked) [Example 198, 3-[[6-[1-[2-[4-[2-[3-[3-[3-amino-6-(2-hydroxyphenyl)pyridazin-4-yl]-3,8-diazabicyclo[3.2.1]octan-8-yl]phenoxy]ethyl]piperazin-1-yl]-2-oxo-ethyl]-4-piperidyl]-3-pyridyl]oxy]piperidine-2,6-dione], the DC50 was found to be 277 nM and the Emax turned out to be 68%.

On to `Nc1nnc(-c2ccccc2O)cc1N1CCC(C(=O)NCC2CCN(C(=O)CN3CCC(c4ccc(OC5CCC(=O)NC5=O)cc4)CC3)CC2)(c2ccccc2)CC1` (centres unmarked) [Example 101, 1-(3-amino-6-(2-hydroxyphenyl)pyridazin-4-yl)-N-((1-(2-(4-(4-((2,6-dioxopiperidin-3-yl)oxy)phenyl)piperidin-1-yl)acetyl)piperidin-4-yl)methyl)-4-phenylpiperidine-4-carboxamide], for which the DC50 was 102 nM and the Emax was 28%.

Consider `Nc1nnc(-c2ccccc2O)cc1N1CCC(C(=O)N2CC3(CCN(C(=O)CC4CCN(c5ccc6c(c5)C(=O)N(C5CCC(=O)NC5=O)C6=O)CC4)C3)C2)(c2ccccc2)CC1` (centres unmarked) [Example 187, 5-(4-(2-(2-(1-(3-amino-6-(2-hydroxyphenyl)pyridazin-4-yl)-4-phenylpiperidine-4-carbonyl)-2,6-diazaspiro[3.4]octan-6-yl)-2-oxoethyl)piperidin-1-yl)-2-(2,6-dioxopiperidin-3-yl)isoindoline-1,3-dione], for which the DC50 is 579 nM and the Emax came to 53%.

On to `Nc1nnc(-c2cc(F)ccc2O)cc1N1CCC(CNC(=O)CCCN2CCC(c3ccc(OC4CCC(=O)NC4=O)cc3)CC2)(c2ccccc2)CC1` (centres unmarked) [Example 183, N-[[1-[3-amino-6-(5-fluoro-2-hydroxy-phenyl)pyridazin-4-yl]-4-phenyl-4-piperidyl]methyl]-4-[4-[4-[(2,6-dioxo-3-piperidyl)oxy]phenyl]-1-piperidyl]butanamide], for which the DC50 turned out to be 99 nM and the Emax was 37%.

Regarding `Nc1nnc(-c2ccccc2O)cc1N1CCN(c2cccc(CN3CCN(C(=O)COc4ccc5c(c4)C(=O)N(C4CCC(=O)NC4=O)C5=O)CC3)c2)C2(CC2)C1` (centres unmarked) [Example 129, 5-(2-(4-(3-(7-(3-amino-6-(2-hydroxyphenyl)pyridazin-4-yl)-4,7-diazaspiro[2.5]octan-4-yl)benzyl)piperazin-1-yl)-2-oxoethoxy)-2-(2,6-dioxopiperidin-3-yl)isoindoline-1,3-dione], the DC50 is 37 nM and the Emax stood at 38%.

Consider `Nc1nnc(-c2ccccc2O)cc1OC1CCCN(c2ccc(N3CCN(C(=O)CCCCCCCCCCCCCCn4cc(CNc5cccc6c5C(=O)N(C5CCC(=O)NC5=O)C6=O)nn4)CC3)cc2)C1` (centres unmarked) [Example 8, 4-[[1-[15-[4-[4-[3-[3-amino-6-(2-hydroxyphenyl)pyridazin-4-yl]oxy-1-piperidyl]phenyl]piperazin-1-yl]-15-oxo-pentadecyl]triazol-4-yl]methylamino]-2-(2,6-dioxo-3-piperidyl)isoindoline-1,3-dione], for which the DC50 was 254 nM and the Emax amounted to 65%.

Consider `Nc1nnc(-c2ccccc2O)cc1N1CCC(NC(=O)CN2CCC(c3ccc(OC4CCC(=O)NC4=O)cc3)CC2)(c2ccccc2)CC1` (centres unmarked) [Example 108, N-[1-[3-amino-6-(2-hydroxyphenyl)pyridazin-4-yl]-4-phenyl-4-piperidyl]-2-[4-[4-[(2,6-dioxo-3-piperidyl)oxy]phenyl]-1-piperidyl]acetamide], for which the DC50 amounted to 109 nM and the maximal effect (Emax) turned out to be 48%.

Regarding `Nc1nnc(-c2ccccc2O)cc1N1CC(Oc2cccc(C(=O)N3CCN(C(=O)CCCCCCCCCNc4cccc5c4C(=O)N(C4CCC(=O)NC4=O)C5=O)CC3)c2)C1` (centres unmarked) [Example 146, 4-[[10-[4-[3-[1-[3-amino-6-(2-hydroxyphenyl)pyridazin-4-yl]azetidin-3-yl]oxybenzoyl]piperazin-1-yl]-10-oxo-decyl]amino]-2-(2,6-dioxo-3-piperidyl)isoindoline-1,3-dione], the DC50 is 126 nM and the Emax amounted to 41%.

As for `Nc1nnc(-c2ccccc2O)cc1O[C@H]1CCCN(c2ccc(N3CCN(CC4CCN(C(=O)CCCCn5cc(COc6cccc7c6C(=O)N(C6CCC(=O)NC6=O)C7=O)nn5)CC4)CC3)cc2)C1` (mixture of isomers) [Example 140, 2-(2,6-dioxo-3-piperidyl)-4-[[1-[5-oxo-5-[4-[[4-[4-[rac-(3S)-3-[3-amino-6-(2-hydroxyphenyl)pyridazin-4-yl]oxy-1-piperidyl]phenyl]piperazin-1-yl]methyl]-1-piperidyl]pentyl]triazol-4-yl]methoxy]isoindoline-1,3-dione], the DC50 is 275 nM and the Emax was 42%.

As to `Nc1nnc(-c2ccccc2O)cc1N1CCC2(CC1)CN(C(=O)CCCCCCCCCCCn1cc(CNc3cccc4c3C(=O)N(C3CCC(=O)NC3=O)C4=O)nn1)CCO2` (centres unmarked) [Example 7, 4-[[1-[12-[9-[3-amino-6-(2-hydroxyphenyl)pyridazin-4-yl]-1-oxa-4,9-diazaspiro[5.5]undecan-4-yl]-12-oxo-dodecyl]triazol-4-yl]methylamino]-2-(2,6-dioxo-3-piperidyl)isoindoline-1,3-dione], the DC50 turned out to be 423 nM and the Emax is 42%.

In the case of `Nc1nnc(-c2ccccc2O)cc1OC1CCCN(c2ccc(N3CCN(C(=O)CCCCCCCC(=O)N4CC[C@H](Nc5cccc6c5C(=O)N(C5CCC(=O)NC5=O)C6=O)C4)CC3)cc2)C1` (mixture of isomers) [Example 45, 2-(2,6-dioxo-3-piperidyl)-4-[[rac-(3S)-1-[9-[4-[4-[3-[3-amino-6-(2-hydroxyphenyl)pyridazin-4-yl]oxy-1-piperidyl]phenyl]piperazin-1-yl]-9-oxo-nonanoyl]pyrrolidin-3-yl]amino]isoindoline-1,3-dione], the DC50 came to 627 nM and the Emax worked out at 58%.

On to `Nc1ccccc1-c1cc(N2CC3CCC(C2)N3c2cccc(CN3CCN(C(=O)C4CCN(c5ccc6c(c5)C(=O)N(C5CCC(=O)NC5=O)C6=O)CC4)CC3)c2)c(N)nn1` (centres unmarked) [Example 147, 5-[4-[4-[[3-[3-[3-amino-6-(2-aminophenyl)pyridazin-4-yl]-3,8-diazabicyclo[3.2.1]octan-8-yl]phenyl]methyl]piperazine-1-carbonyl]-1-piperidyl]-2-(2,6-dioxo-3-piperidyl)isoindoline-1,3-dione], for which the DC50 worked out at 236 nM and the Emax was determined as 69%.

Regarding `CN(C(=O)C1CCN(Cc2cccc(N3C4CCC3CN(c3cc(-c5ccccc5O)nnc3N)C4)c2)CC1)C1CN(c2ccc3c(c2)C(=O)N(C2CCC(=O)NC2=O)C3=O)C1` (racemic) [Example 170, rac-1-[[3-[3-[3-amino-6-(2-hydroxyphenyl)pyridazin-4-yl]-3,8-diazabicyclo[3.2.1]octan-8-yl]phenyl]methyl]-N-[1-[2-(2,6-dioxo-3-piperidyl)-1,3-dioxo-isoindolin-5-yl]azetidin-3-yl]-N-methyl-piperidine-4-carboxamide], the DC50 came to 18 nM and the Emax was found to be 31%.

Broadly, the Emax is the maximal effect, on the per cent scale that the assay sets.
